Data: patent US4079141A, “Azabicycloalkanes” (priority 1976, dated 1978)
Read-outs that look alike come from different tables or passages of the source.

Columns and labels:
[1] = tested on: 2-phenyl-1,4-quinone induced writhing; test: 2-phenyl-1,4-quinone induced writhing assay in mice (analgesia); type: in vivo; details: Mus musculus, sc, read-out: ED50 (inhibition of writhing)
Text: Compounds of the invention are useful as analgesic agents due to their ability to alleviate pain in mammals. […] Exptl. Biol. Med., 95, 729 (1957)].

[2] = tested on: mania (increased motor activity) produced in mice by morphine; test: Morphine antagonist test: inhibition of the characteristic mania (increased motor activity) produced in mice by morphine; type: in vivo; details: for % Inhibition (percent of pairs in which the mania is inhibited): subcutaneous, concurrently with 25 mg/kg morphine sulfate, 10 pairs of mice
Protocol: A sample of 25 mg/kg of body weight of morphine sulfate and the compound of the invention to be tested are concurrently administered subcutaneously to 10 pairs of mice. The mice are then observed for inhibition of the characteristic mania (increased motor activity) normally produced in mice by morphine. Results are outlined in Table II and expressed as percent of pairs in which the mania is inhibited at a given dose level.

[3] = 0.25 h, mice, subcutaneous, drug administration time 15 minutes
[4] = 0.5 h, mice, subcutaneous, drug administration time 30 minutes

For `Oc1cccc(C23CCC(C2)N(Cc2ccco2)CC3)c1` (stereo not shown) [2-(2-furylmethyl)-5-(3-hydroxyphenyl)-2-azabicyclo[3.2.1]octane.HBr], the ED50 [1, 3] was 22 mg/kg and the “% Inhibition (percent of pairs in which the mania is inhibited)” value ([2]; dose 25 mg/kg) was 100%.

In the case of `O=C(CCCN1CCC2(c3cccc(O)c3)CCC1C2)c1ccc(F)cc1` (stereo not shown) [2-[3-(4-fluorobenzoyl)propyl]-5-(3-hydroxyphenyl)-2-azabicyclo[3.2.1]octane.HBr], the “% Inhibition (percent of pairs in which the mania is inhibited)” value ([2]; dose 10 mg/kg) was 100%.

Work on `O=C(CCCN1CCC2(c3cccc(O)c3)CCC1C2)c1ccc(F)cc1` (stereo not shown) [2-[3-(4-fluorobenzoyl)propyl]-5-(3-hydroxyphenyl)-2-azabicyclo[3.2.1]octane] yielded an ED50 [1, 4] of 0.35 mg/kg.

With `COc1cccc(C23CCC(C2)N(CCCC(=O)c2ccc(F)cc2)CC3)c1` (stereo not shown) [2-[3-(4-fluorobenzoyl)propyl]-5-(3-methoxyphenyl)-2-azabicyclo[3.2.1]octane.HBr] the ED50 ([1]; 1 h, mice, subcutaneous, drug administration time 60 minutes) was 0.7 mg/kg and the “% Inhibition (percent of pairs in which the mania is inhibited)” value ([2]; dose 10 mg/kg) was 100%.

`Oc1cccc(C23CCC(C2)N(CC2CC2)CC3)c1` (stereo not shown) [2-cyclopropylmethyl-5-(3-hydroxyphenyl)-2-azabicyclo[3.2.1]octane.HBr] was tested, and the ED50 [1, 4] was 6 mg/kg and the “% Inhibition (percent of pairs in which the mania is inhibited)” value ([2]; dose 25 mg/kg) was 100%.

For `CCCCCN1CCC2(c3cccc(O)c3)CCC1C2` (stereo not shown) [2-n-amyl-5-(3-hydroxyphenyl)-2-azabicyclo[3.2.1]octane.HBr], the ED50 [1, 4] was 11 mg/kg, the “% Inhibition (percent of pairs in which the mania is inhibited)” value ([2]; dose 3 mg/kg) was 50% and the “% Inhibition (percent of pairs in which the mania is inhibited)” value ([2]; dose 25 mg/kg) was 100%.

In the case of `CCCCCN1CCC2(c3cccc(OC)c3)CCC1C2` (stereo not shown) [2-n-amyl-5-(3-methoxyphenyl)-2-azabicyclo[3.2.1]octane.HBr], the ED50 [1, 4] was 5 mg/kg and the “% Inhibition (percent of pairs in which the mania is inhibited)” value ([2]; dose 30 mg/kg) was 100%.

In the case of `CCCCN1CCC2(c3cccc(O)c3)CCC1C2` (stereo not shown) [2-n-butyl-5-(3-hydroxyphenyl)-2-azabicyclo[3.2.1]octane.HBr], the ED50 [1, 3] was 9 mg/kg and the “% Inhibition (percent of pairs in which the mania is inhibited)” value ([2]; dose 25 mg/kg) was 100%.

With `CCCCN1CCC2(c3cccc(OC)c3)CCC1C2` (stereo not shown) [2-n-butyl-5-(3-methoxyphenyl)-2-azabicyclo[3.2.1]octane.HBr] the ED50 [1, 4] was 4.6 mg/kg and the “% Inhibition (percent of pairs in which the mania is inhibited)” value ([2]; dose 25 mg/kg) was 100%.

For `CC(=O)Oc1cccc(C23CCC(C2)N(C)CC3)c1` (stereo not shown) [5-(3-acetoxyphenyl)-2-methyl-2-azabicyclo[3.2.1]octane.HBr], the “% Inhibition (percent of pairs in which the mania is inhibited)” value ([2]; dose 50 mg/kg) was 100%.

In the case of `CC(=O)Oc1cccc(C23CCC(C2)N(CCc2ccccc2)CC3)c1` (stereo not shown) [5-(3-acetoxyphenyl)-2-phenethyl-2-azabicyclo[3.2.1]octane.HBr], the ED50 [1, 4] was 6.1 mg/kg and the “% Inhibition (percent of pairs in which the mania is inhibited)” value ([2]; dose 10 mg/kg) was 70%.

In the case of `CN1CCC2(c3cccc(O)c3)CCC1C2` (stereo not shown) [5-(3-hydroxyphenyl)-2-methyl-2-azabicyclo[3.2.1]octane.HBr], the ED50 [1, 4] was 9.5 mg/kg and the “% Inhibition (percent of pairs in which the mania is inhibited)” value ([2]; dose 50 mg/kg) was 80%.

`CCCN1CCC2(c3cccc(O)c3)CCC1C2` (stereo not shown) [5-(3-hydroxyphenyl)-2-n-propyl-2-azabicyclo[3.2.1]octane.HBr] was tested, and the ED50 [1, 3] was 8.9 mg/kg and the “% Inhibition (percent of pairs in which the mania is inhibited)” value ([2]; dose 50 mg/kg) was 100%.

`Oc1cccc(C23CCC(C2)N(CCc2ccccc2)CC3)c1` (stereo not shown) [5-(3-hydroxyphenyl)-2-phenethyl-2-azabicyclo[3.2.1]octane.HBr] was tested, and the ED50 [1, 3] was 0.7 mg/kg, the “% Inhibition (percent of pairs in which the mania is inhibited)” value ([2]; dose 1 mg/kg) was 50% and the “% Inhibition (percent of pairs in which the mania is inhibited)” value ([2]; dose 50 mg/kg) was 100%.

For `COc1cccc(C23CCC(C2)N(C)CC3)c1` (stereo not shown) [5-(3-methoxyphenyl)-2-methyl-2-azabicyclo[3.2.1]octane.HBr], the ED50 [1, 4] was 7.9 mg/kg and the “% Inhibition (percent of pairs in which the mania is inhibited)” value ([2]; dose 50 mg/kg) was 50%.

In the case of `CCCN1CCC2(c3cccc(OC)c3)CCC1C2` (stereo not shown) [5-(3-methoxyphenyl)-2-n-propyl-2-azabicyclo[3.2.1]octane.HBr], the ED50 [1, 3] was 7.4 mg/kg, the “% Inhibition (percent of pairs in which the mania is inhibited)” value ([2]; dose 10 mg/kg) was 50% and the “% Inhibition (percent of pairs in which the mania is inhibited)” value ([2]; dose 50 mg/kg) was 100%.

With `COc1cccc(C23CCC(C2)N(CCc2ccccc2)CC3)c1` (stereo not shown) [5-(3-methoxyphenyl)-2-phenethyl-2-azabicyclo[3.2.1]octane.HBr] the ED50 [1, 4] was 5.9 mg/kg.

`CN1CC[C@]23c4c5ccc(O)c4O[C@H]2[C@@H](O)C=C[C@H]3[C@H]1C5` [morphine, reference compound] was tested, and the ED50 ([1]; 0.5 h) was 0.47 mg/kg.

`CC(C)=CCN1CCC2(C)c3cc(O)ccc3CC1C2C` (stereo not shown) [pentazocine, reference compound] gave an ED50 [1, 3] of 1.5 mg/kg, an ED50 [1, 4] of 4.8 mg/kg and an ED50 ([2]; Mus musculus, sc, mice, concurrently with morphine sulfate, for comparison, read-out: dose exhibiting a 50% inhibition (of morphine mania)) greater than 50 mg/kg.
